# Source: publication PMC2861360 (Chemistry & biology, 2008)
# Experiments:
# wt EryAIII M6 = molecular target: T1, wt EryAIII M6 (Saccharopolyspora erythraea, UniProt Q03133); assay: SDS-PAGE autoradiography of self-loading; type: biochemical; settings: HEPES pH 7.4, RT; covalent; labelled compound; data not shown
# T1 sequence (Q03133 1468-2900 limits assumed): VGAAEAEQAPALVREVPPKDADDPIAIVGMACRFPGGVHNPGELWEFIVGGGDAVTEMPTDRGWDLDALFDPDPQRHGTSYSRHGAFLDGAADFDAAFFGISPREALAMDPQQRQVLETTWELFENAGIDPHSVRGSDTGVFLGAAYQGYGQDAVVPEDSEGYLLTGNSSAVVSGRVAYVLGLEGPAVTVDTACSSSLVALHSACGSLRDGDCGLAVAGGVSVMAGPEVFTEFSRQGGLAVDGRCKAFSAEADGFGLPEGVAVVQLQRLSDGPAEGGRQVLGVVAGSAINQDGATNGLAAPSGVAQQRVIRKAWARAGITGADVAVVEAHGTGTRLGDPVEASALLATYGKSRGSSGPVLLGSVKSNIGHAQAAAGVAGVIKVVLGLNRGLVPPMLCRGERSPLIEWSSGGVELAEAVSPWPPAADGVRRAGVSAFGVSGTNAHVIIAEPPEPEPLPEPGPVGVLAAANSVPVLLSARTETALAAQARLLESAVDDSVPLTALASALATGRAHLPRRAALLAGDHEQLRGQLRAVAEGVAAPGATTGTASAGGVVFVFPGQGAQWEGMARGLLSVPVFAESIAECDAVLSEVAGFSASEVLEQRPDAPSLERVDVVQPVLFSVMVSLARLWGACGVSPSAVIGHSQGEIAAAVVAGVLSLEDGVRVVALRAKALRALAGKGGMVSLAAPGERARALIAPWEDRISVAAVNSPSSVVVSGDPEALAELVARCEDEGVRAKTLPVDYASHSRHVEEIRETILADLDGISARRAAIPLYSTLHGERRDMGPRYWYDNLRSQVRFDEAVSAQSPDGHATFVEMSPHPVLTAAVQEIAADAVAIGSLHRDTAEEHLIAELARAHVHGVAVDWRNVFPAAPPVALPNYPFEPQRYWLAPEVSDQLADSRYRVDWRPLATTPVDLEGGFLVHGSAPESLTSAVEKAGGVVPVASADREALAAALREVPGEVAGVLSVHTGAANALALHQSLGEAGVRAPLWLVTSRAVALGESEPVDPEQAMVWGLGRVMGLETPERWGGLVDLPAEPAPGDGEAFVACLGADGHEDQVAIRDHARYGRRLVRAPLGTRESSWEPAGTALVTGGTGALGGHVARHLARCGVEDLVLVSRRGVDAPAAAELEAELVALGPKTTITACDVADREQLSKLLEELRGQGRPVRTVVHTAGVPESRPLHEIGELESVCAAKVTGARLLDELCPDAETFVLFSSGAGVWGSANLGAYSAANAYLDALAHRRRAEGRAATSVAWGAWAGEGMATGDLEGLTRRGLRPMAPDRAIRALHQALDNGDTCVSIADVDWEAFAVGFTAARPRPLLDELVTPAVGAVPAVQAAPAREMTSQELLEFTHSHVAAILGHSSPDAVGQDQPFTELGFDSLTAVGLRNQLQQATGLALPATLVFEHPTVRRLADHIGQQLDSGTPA
# wt PikAIV M6 = wt PikAIV M6 (Streptomyces venezuelae, UniProt Q9ZGI2); assay: SDS-PAGE autoradiography of self-loading; type: biochemical; settings: 0.4 mM; HEPES pH 7.4, RT, 5 min; covalent; labelled compound
# Sequence of wt PikAIV M6 (Q9ZGI2 whole entry): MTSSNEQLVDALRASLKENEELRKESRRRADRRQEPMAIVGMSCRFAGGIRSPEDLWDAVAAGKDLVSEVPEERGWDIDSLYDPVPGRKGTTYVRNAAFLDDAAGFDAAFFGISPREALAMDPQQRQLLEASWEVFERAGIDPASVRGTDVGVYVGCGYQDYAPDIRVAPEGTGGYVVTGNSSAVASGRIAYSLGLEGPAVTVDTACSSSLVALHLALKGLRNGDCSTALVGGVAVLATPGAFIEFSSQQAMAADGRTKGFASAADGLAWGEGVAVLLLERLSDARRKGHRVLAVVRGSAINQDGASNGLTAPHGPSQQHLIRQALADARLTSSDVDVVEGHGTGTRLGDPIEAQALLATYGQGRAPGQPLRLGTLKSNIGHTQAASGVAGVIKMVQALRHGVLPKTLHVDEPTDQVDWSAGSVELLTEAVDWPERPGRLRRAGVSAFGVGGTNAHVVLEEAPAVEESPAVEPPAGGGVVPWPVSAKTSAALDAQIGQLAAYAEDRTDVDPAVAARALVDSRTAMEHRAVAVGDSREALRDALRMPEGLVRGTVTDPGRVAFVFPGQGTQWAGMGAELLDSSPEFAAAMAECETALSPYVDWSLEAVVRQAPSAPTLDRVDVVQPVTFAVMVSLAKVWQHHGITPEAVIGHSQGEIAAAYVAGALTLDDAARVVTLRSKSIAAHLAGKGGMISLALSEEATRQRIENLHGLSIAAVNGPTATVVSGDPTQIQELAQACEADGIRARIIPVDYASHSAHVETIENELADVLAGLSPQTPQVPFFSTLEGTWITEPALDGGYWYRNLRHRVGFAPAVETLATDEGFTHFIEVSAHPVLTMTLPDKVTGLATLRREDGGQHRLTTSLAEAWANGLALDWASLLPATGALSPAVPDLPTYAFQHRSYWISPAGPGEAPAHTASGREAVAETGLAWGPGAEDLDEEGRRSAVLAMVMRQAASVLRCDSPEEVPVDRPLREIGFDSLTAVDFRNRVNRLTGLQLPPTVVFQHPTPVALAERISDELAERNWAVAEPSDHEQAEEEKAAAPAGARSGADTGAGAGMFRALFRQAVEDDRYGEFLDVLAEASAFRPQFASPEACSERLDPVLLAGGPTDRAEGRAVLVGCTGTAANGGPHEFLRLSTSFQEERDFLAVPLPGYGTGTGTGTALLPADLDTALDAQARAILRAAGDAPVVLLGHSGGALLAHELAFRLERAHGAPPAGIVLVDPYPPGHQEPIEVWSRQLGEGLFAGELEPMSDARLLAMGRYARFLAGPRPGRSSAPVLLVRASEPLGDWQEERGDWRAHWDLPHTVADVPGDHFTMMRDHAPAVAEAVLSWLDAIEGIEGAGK
smiles,measurement,setting,value
CC(C(=O)O)C(=O)SCCNC(=O)CCNC(=O)[C@H](O)C(C)(C)COP(=O)(O)OP(=O)(O)OC[C@H]1O[C@@H](n2cnc3c(N)ncnc32)[C@H](O)[C@@H]1OP(=O)(O)O (some centres unmarked) [methylmalonyl-CoA],SDS-PAGE autoradiography of self-loading,wt EryAIII M6,wt EryAIII M6 was able to self-load methylmalonyl-CoA
same,SDS-PAGE autoradiography of self-loading,wt PikAIV M6,"The wt PikAIV M6 was able to self-load and transfer methylmalonyl-CoA, but not malonyl-CoA"
